Experimental data: article PMC10485003, “Antibiotic hyper-resistance in a class I aminoacyl-tRNA synthetase with altered active site signature motif” (Nature Communications, 2023)
Values joined by “and” are separate entries in the source; they are usually repeats but may differ in a detail not shown here. Equal entries are not always repeated.

Key:
[1] = biological target: T1, mut-GVHH TtIleRS2 (Thermus thermophilus, UniProt P56690, G56H/H54G); assay: biochemical
T1 construct: hexa-histidine tag (pET28b(+)) (N); made in house; host or cells: E. coli Rosetta2 (DE3)
T1 sequence (P56690 1-1043 H54G/G56H): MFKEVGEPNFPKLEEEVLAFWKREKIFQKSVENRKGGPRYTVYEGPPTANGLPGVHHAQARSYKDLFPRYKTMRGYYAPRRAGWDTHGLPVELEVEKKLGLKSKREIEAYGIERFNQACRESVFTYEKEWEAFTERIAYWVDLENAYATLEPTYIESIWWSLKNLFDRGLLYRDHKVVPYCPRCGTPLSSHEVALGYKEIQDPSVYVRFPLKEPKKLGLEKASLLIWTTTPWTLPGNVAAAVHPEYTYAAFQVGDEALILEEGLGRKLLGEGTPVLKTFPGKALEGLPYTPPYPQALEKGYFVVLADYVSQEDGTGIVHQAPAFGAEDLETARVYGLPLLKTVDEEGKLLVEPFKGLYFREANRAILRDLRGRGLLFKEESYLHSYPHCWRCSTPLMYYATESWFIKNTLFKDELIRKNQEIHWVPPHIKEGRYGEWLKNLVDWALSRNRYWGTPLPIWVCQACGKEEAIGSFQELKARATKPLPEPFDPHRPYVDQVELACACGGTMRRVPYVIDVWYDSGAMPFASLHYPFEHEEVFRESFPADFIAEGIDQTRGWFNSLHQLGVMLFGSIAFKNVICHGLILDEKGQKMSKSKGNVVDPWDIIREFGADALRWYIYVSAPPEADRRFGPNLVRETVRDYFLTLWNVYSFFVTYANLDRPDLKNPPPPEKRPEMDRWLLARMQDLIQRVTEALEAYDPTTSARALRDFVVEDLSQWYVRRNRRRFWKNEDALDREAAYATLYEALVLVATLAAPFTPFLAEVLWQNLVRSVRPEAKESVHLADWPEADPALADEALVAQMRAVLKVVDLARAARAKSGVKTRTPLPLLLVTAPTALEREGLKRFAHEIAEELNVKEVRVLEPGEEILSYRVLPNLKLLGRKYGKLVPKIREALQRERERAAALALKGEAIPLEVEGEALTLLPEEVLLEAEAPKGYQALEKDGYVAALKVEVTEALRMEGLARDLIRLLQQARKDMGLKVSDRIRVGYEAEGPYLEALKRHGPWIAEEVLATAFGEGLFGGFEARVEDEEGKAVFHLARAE
Description: (§1) L-Ile and ATP concentrations ranged from 1/10 KM to 10 KM values. When measuring the KI towards one of the substrates, the other was held in saturation (concentrations at least 10 KM). The aliquots of the reaction mixture (1–2.5 μl) were quenched in 2 volumes of 500 mM NaOAc pH = 4.5, 0.1% SDS, and formed ^32P-ATP was separated from the remaining ^32P-PPi by thin-layer chromatography on Polygram CEL 300 PEI UV254 TLC plates (Macherey-Nagel, cat: 801063) using 750 mM KH2PO4 pH=3.5, 4 M urea buffer. Visualization and quantification of the signals was performed using a Typhoon Phosphoimager 5 (General Electric) and accompanying ImageQuant™ TL software (SV: 10.2). The kinetic constants were determined using a global fit option of the competitive inhibition model of GraphPad Prism 6 software (SV: 6.01). All experiments were performed in triplicates. The kcat was determined by dividing the maximal velocity, VM, with the used enzyme concentration. […]
(§2) variable substrate (ATP or Ile) was varied in the range of 0.1 KM to 10 KM. The other substrate (Ile or ATP) was kept in excess at 5 to 10 KM. Data were globally fitted to the competitive inhibition model using GraphPad prism 6.01 for Windows software. The values represent the average value ± SD of three independent experiments. Source data are provided as a Source Data file.
(§3) (1 picture or pasted object on this page, not shown here)

[2] = biological target: T2, mut-HVGH DrIleRS2 (Deinococcus radiodurans, UniProt Q9RUP8, A59H/H61G/L60V); assay: biochemical
T2 construct: hexa-histidine tag (pET28b(+)) (N); made in house; host or cells: E. coli BL21(DE3)
T2 sequence (Q9RUP8 1-1078 A59H/L60V/H61G): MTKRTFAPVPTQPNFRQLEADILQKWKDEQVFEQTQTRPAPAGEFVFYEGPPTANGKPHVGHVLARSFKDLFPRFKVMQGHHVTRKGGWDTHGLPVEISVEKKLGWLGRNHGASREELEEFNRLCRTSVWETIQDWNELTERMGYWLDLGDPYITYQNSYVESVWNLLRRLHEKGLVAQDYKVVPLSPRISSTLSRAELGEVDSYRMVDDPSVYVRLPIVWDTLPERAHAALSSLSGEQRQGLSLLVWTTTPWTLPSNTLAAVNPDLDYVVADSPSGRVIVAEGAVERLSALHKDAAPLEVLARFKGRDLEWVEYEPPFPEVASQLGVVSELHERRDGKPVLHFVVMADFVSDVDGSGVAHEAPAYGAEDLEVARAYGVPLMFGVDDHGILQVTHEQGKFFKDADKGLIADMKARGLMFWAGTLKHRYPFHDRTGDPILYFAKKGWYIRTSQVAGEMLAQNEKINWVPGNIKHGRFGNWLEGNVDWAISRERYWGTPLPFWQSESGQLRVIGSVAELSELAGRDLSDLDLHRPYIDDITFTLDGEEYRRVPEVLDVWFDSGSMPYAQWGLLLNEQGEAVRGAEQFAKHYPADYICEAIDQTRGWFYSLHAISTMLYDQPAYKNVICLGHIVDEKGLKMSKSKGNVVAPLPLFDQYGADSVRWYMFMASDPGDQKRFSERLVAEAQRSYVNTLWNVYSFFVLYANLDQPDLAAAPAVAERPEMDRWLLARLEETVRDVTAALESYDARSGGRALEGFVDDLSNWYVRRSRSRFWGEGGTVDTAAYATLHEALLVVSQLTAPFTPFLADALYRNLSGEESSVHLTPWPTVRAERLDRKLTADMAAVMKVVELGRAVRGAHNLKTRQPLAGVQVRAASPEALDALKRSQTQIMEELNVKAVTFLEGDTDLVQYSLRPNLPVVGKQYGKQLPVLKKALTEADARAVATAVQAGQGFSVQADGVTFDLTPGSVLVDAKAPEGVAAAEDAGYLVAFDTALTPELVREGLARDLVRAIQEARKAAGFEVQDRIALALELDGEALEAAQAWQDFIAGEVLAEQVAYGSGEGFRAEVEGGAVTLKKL
Description: as §1, §2, §3

[3] = KI (MUP)ATP, amino acid activation assay, ATP as variable substrate, average ± SD of three independent experiments
[4] = KI (MUP)Ile, amino acid activation step, ATP/PPi exchange assay, Ile varied, ATP saturating, average ± SD of three independent experiments
[5] = KI, single replicates, mupirocin inhibition towards Ile, GraphPad Prism output, Repl1-Repl3

SMILES: C/C(=C\C(=O)OCCCCCCCCC(=O)O)C[C@@H]1OC[C@H](C[C@@H]2O[C@H]2[C@@H](C)[C@H](C)O)[C@@H](O)[C@H]1O [mupirocin]
- Ki [1, 3]: 34 ± 2 µM
- Ki [1, 4]: 35 ± 2 µM
- Ki [1, 5]: 34 µM and 35 µM and 36 µM
- Ki [2, 3]: 9.3 ± 0.4 µM
- Ki [2, 4]: 8.1 ± 0.3 µM
- Ki [2, 5]: 7.8 µM and 8.4 µM (2×)
